Laboratory results reported in patent publication US7517893B2, “Bichalcophenes and their prodrugs as antiprotozoal agents” (The University of North Carolina at Chapel Hill, priority 2005, dated 2009).
Several values for one entry are separate records, joined by “and”; a condition that tells them apart may be missing. Equal entries are not always repeated. Structures can show the parent of a compound that is named as a salt. Where two headings read alike, the source gives them in different places.

Key:
[1] = test system: STIB 900 strain of Trypanosoma brucei rhodesiense; test: In vivo activity against T. b. r. STIB 900 in a mouse model; conditions: for Survival: average days of survival, mice, untreated controls die between day 7 and 8; for Survival / Cures: days 3-6 post-infection; for Cures: number of mice that survive and are parasite free for 60 days, groups of four mice; for in vivo activity against T. b. r. (in words) / cure rate compared with pentamidine and furamidine (in words): murine model; for cure rate compared with pentamidine and furamidine (in words): T. b. r. STIB 900
Protocol: The activities of compounds 6, 8, 14, 16 and 17, against the STIB 900 strain of Trypanosoma brucei rhodesiense (T. b. r.) in a mouse model are shown in Table 2. These values are compared to those of pentamidine and furamidine. Groups of four mice were infected intraperitoneally with […] bloodstream forms of T. b. r. STIB 900 which originates from a patient in Tanzania. On days 3, 4, 5, and 6 post-infection the experimental groups were treated with the drugs either by the intraperitoneal or for prodrugs by the oral route. Usually the highest tolerated dose was used which was determined in a pretoxicological experiment. Parasitemia of the mice was checked daily up to day 14 post-infection and thereafter 2 times per week up to day 60. One group of mice was not treated and acted as control. For relapsing mice, the day of death was recorded and the survival time determined.

[2] = test system: Trypanosoma brucei rhodesiense, Plasmodium falciparum, Leishmania donovani; test: In vitro antiprotozoal activities, overall statement on prodrugs; format: cell-based; conditions: absence of the enzymes needed for bioconversion to the active diamidines
Protocol: In vitro antiprotozoal activities were measured following established protocols. See Ismail, M. A., et al., J. Med. Chem., 46, 4761-4769 (2003); Stephens, C. E., et al., Bioorg. Med. Chem. Lett., 13, 2065-2069 (2003) (in vitro assay against Leishmania donovani). The activities of compounds 8, 14, 16, 17, 19, 22, 26a, 26b, 29a, 29b, and 33, 39, and 45 against Trypanosoma brucei riodesiense (T. b. r.), Plasmodium falciparum (P. f.), Leishmania donovani (L. d.), and L-6 rat mycoblast cells (as an assay for cell toxicity) are shown in Table 1. These values are compared to those of pentamidine and furamidine.

[3] = test system: Plasmodium falciparum; test: In vitro antiprotozoal activity against P. f.; format: cell-based
Protocol: (§1) In vitro antiprotozoal activities were measured following established protocols. […] E., et al., Bioorg.

[4] = test system: polyA.polyT; test: DNA binding study: increase in thermal melting (ΔTm) of polyA.polyT; conditions: increase in thermal melting of polyA.polyT in the presence of compound
Protocol: DNA binding studies with polyA.polyT were carried out using established protocols. See Wilson, W. D., et al., Biochemistry, 32, 4098-4104 (1993).

[5] = test system: L-6 rat mycoblast cells; test: Cell toxicity assay in L-6 rat mycoblast cells; format: cell-based; conditions: assay for cell toxicity, read-out: L6 Rat Mycoblast Cells IC50
Protocol: as §1

[6] = test system: Trypanosoma brucei rhodesiense; test: In vitro antiprotozoal activity against T. b. r.; format: cell-based
Protocol: as §1

[7] = test system: Leishmania donovani; test: In vitro antiprotozoal activity against L. d.; format: cell-based; conditions: read-out: L.d. C50
Protocol: as §1

[8] = Trypanosoma brucei, RHODESIENSE

| Compound | melting point [°C] | IC50 ([3]; Plasmodium falciparum) [µM] | IC50 [5] [µM] | IC50 [6, 8] [µM] | IC50 [7] [µM] | other results |
| --- | --- | --- | --- | --- | --- | --- |
| N=C(N)c1ccc(-c2ccc(-c3ccc(-c4ccc(C(=N)N)cn4)o3)o2)nc1 (as salt: salt) [Compound 22, 5,5′-Bis-(5-amidino-2-pyridyl)-2,2′-bifuran] | > 300 | – | – | – | – | – |
| N=C(NO)c1ccc(-c2ccc(-c3ccc(C(=N)NO)o3)o2)cc1 [Compound 6, N-Hydroxy-5′-[4-(N-hydroxyamidino)-phenyl]-2,2′-bifuran-5-carboxamidine] | – | – | – | – | – | Survival ([1]; po, 75 mg/kg): 20 days; Cures ([1]; po, 75 mg/kg): 0/4; in vitro activity (in words) [2]: poor in vitro activity |
| N=C(N)c1ccc(-c2ccc(-c3ccc(C(=N)N)o3)o2)cc1 [Compound 8, 5′-(4-Amidinophenyl)-2,2′-bifuran-5-carboxamidine] | – | 0.0415 | 37.8 | – | – | Δ Tm [4]: 10.8 °C; Survival ([1]; ip, 20 mg/kg): >45.5 days; in vivo activity against T. b. r. (in words) [1]: good in vivo activity; cure rate compared with pentamidine and furamidine (in words) [1]: better cure rates than pentamidine and furamidine; Cures ([1]; ip, 20 mg/kg): 2/4 |
| N=C(NO)c1ccc(-c2ccc(-c3ccc(C(=N)NO)o3)o2)nc1 [Compound 13, N-Hydroxy-6-[5′-(N-hydroxyamidino)-2,2′-bifuran-5-yl]-nicotinamidine] | 248 to 250 | – | – | – | – | – |
| CC(=O)O.N=C(N)c1ccc(-c2ccc(-c3ccc(C(=N)N)o3)o2)nc1 [Compound 14, 6-(5′-Amidino-2,2′-bifuran-5-yl)-nicotinamidine acetate salt] | – | – | 26.9 | – | – | Δ Tm [4]: 7.1 °C; Survival ([1]; ip, 10 mg/kg): >51.25 days; in vivo activity against T. b. r. (in words) [1]: good in vivo activity; cure rate compared with pentamidine and furamidine (in words) [1]: better cure rates than pentamidine and furamidine; Cures ([1]; ip, 10 mg/kg, acetate salt, 10 mg/kg): three mice out of four and 3/4 |
| N/C(=N\O)c1ccc(-c2ccc(-c3ccc(-c4ccc(/C(N)=N\O)cc4)o3)o2)cc1 [Compound 16, 5,5′-bis-(4-N-Hydroxybenzamidine)-2,2′-bifuran] | – | 2.96 | > 182 | 8.7 | – | Survival ([1]; po, 100 mg/kg): 5.5 days; Cures ([1]; po, 100 mg/kg): 0/4; in vitro activity (in words) [2]: poor in vitro activity |
| Cl.N=C(N)c1ccc(-c2ccc(-c3ccc(-c4ccc(C(=N)N)cc4)o3)o2)cc1 [Compound 17, 5,5′-bis-(4-Amidinophenyl)-2,2′-bifuran hydrochloride salt] | – | ≤ 0.022 | 10.7 | 0.126 | 1 | IC50 ([3]; hydrochloride salt): 0.02 µM; Δ Tm [4]: 23.6 °C; Survival ([1]; ip, 10 mg/kg): 24 days; Cures ([1]; ip, 10 mg/kg): 0/4 |
| CONC(=N)c1ccc(-c2ccc(-c3ccc(-c4ccc(C(=N)NOC)cc4)o3)o2)cc1 [Compound 19, 5,5′-Bis-[4-(N-methoxyamidino)phenyl]-2,2′-bifuran] | – | > 7.4 | > 133 | 36 | – | in vitro activity (in words) [2]: poor in vitro activity |
| N=C(N)c1ccc(-c2ccc(-c3ccc(-c4ccc(C(=N)N)cn4)o3)o2)nc1 [Compound 22, 5,5′-Bis-(5-amidino-2-pyridyl)-2,2′-bifuran] | – | 0.029 | 5.1 | 0.07 | > 100 | – |
| N=C(N)c1ccc(-c2ccc(-c3ccc(-c4ccc(C(=N)N)cc4)s3)s2)cc1 [Compound 26a, 5,5′-Bis-(4-amidinophenyl)-2,2′-bithiophene] | > 300 | ≤ 0.022 | 89.4 | ≤ 0.026 | – | IC50 [3]: 0.022 µM; IC50 [6]: 0.015 µM |
| N=C(N)c1ccnc(-c2ccc(-c3ccc(-c4cc(C(=N)N)ccn4)s3)s2)c1 [Compound 26b, 5,5′-Bis-(4-amidino-2-pyridyl)-2,2′-bithiophene] | > 300 | 0.034 | > 159 | 0.036 | > 50 | – |
| N=C(N)c1ccc(-c2ccc(-c3ccc(-c4ccc(C(=N)N)cc4)[se]3)[se]2)cc1 [Compound 29a, 5,5′-Bis-(4-amidinophenyl)-2,2′-biselenophene] | > 300 | ≤ 0.022 | 13.4 | ≤ 0.026 | – | IC50 [3]: 0.014 µM; IC50 [6]: 0.026 µM |
| N=C(N)c1ccnc(-c2ccc(-c3ccc(-c4cc(C(=N)N)ccn4)[se]3)[se]2)c1 [Compound 29b, 5,5′-Bis-(4-amidino-2-pyridyl)-2,2′-biselenophene] | > 300 | 0.076 | > 144 | 0.153 | 19.8 | – |
| N=C(N)c1ccc2nc(-c3ccc(-c4ccc(C(=N)N)o4)o3)[nH]c2c1 [Compound 45] | – | – | 41.8 | – | – | Δ Tm [4]: 23.2 °C |
| N=C(N)c1ccc(OCCCCCOc2ccc(C(=N)N)cc2)cc1 [Pentamidine, reference compound] | – | – | – | – | 2 | Survival ([1]; ip, 20 mg/kg): >42.75 days; Cures ([1]; ip, 20 mg/kg): 0/4 |
